Experiments:
[1] = system: CRC477 tumorgraft with FGFR1 amplification; assay: Tumor growth in tumorgraft cohort CRC477; assay type: in vivo, NOD/SCID mice; settings: 6 mice per cohort, combination p<0.01, two-way ANOVA
[2] = system: cetuximab-resistant tumors with 492S>R alterations in EGFR; settings: EGFR 492S>R, previous reports (32); cited from earlier work
[3] = system: CRC104 tumorgraft with EGFR 465G>E mutation; assay: Tumor growth in tumorgraft cohort CRC104; assay type: in vivo, NOD/SCID mice; settings: CRC104, EGFR 465G>E; n=6 for each arm; p<0.01, two-way ANOVA
[4] = system: CRC343 tumorgraft with MAP2K1 57K>N substitution; assay: Tumor growth in tumorgraft cohort CRC343; assay type: in vivo, NOD/SCID mice; settings: CRC343, MAP2K1 57K>N; combination p<0.01, two-way ANOVA

For CCN1CCN(c2ccc(Nc3cc(N(C)C(=O)Nc4c(Cl)c(OC)cc(OC)c4Cl)ncn3)cc2)CC1 [BGJ398, 3-(2,6-dichloro-3,5-dimethoxy-phenyl)-1-{6-[4-(4-ethyl-piperazin-1-yl)-phenylamino]-pyrimidin-4-yl}-1-methyl-urea], the Tumor growth [1] was “resistant”.

For panitumumab, the “Sensitivity of tumors to therapy” value [2] is listed as “sensitive” and the Tumor growth [3] is listed as “poorly sensitive”.

In the case of Cn1cnc2c(F)c(Nc3ccc(Br)cc3Cl)c(C(=O)NOCCO)cc21 [AZD6244], the Tumor growth [4] is reported as “unproductive”.
